Measured values published in patent US8716530B2, “Facially amphiphilic polyaryl and polyarylalkynyl polymers and oligomers and uses thereof” (The Trustess of the University of Pennsylvania, priority 2004, dated 2014).
Converted amounts (≈) assume the structure as drawn. “And” between values parts separate entries of the source, which are not always exact repeats. Identical values can stand only once. Like-named read-outs stand apart in the source and are kept apart here.

How the values were obtained:
Candida albicans = experiment: MIC100, clinical isolates of hospital-acquired pathogens (Table 7); assay type: cell-based; conditions: one table line per isolate, RPMI synthetic medium, in µg/mL
[1] = test system: S. aureus and methicillin-resistant S. aureus (MRSA); experiment: MIC100, modified NCCLS microbroth dilution (Table 6); assay type: cell-based; conditions: Staphylococcus aureus
E. coli [2] = experiment: as above; assay type: cell-based; conditions: Escherichia coli
B. anthracis = experiment: microbe, parasite or virus in culture; assay type: cell-based, Bacillus anthracis
Y. pestis = experiment: microbe, parasite or virus in culture; assay type: cell-based; conditions: Yersinia pestis, 30 h, read-out: MIC100 Y. pestis (30 hr)
S. aureus = assay type: cell-based; conditions: S. aureus passaged at 0.5x MIC100; by passage 16 (17 consecutive passages)
human erythrocytes = experiment: Hemolysis of human erythrocytes (HC50); conditions: for Hemolysis HC50: one hour incubation, 50% hemoglobin release, Table 1
E. coli [3] = experiment: Modified NCCLS microbroth dilution MIC assay; assay type: cell-based; conditions: Escherichia coli; for MIC: 18 to 20 hours incubation, OD 600 nm
B. subtilis = experiment: Modified NCCLS microbroth dilution MIC assay; conditions: Bacillus subtilis; for MIC: read-out: B. subtilis MIC
Chaetomium globosum = experiment: Antifungal MIC/MFC, NCCLS M38-A; assay type: cell-based
Description: (§1) MIC endpoints were determined for A. fumigatus, P. funiculosum, C. globosum and T. virens according to current NCCLS guidelines defined for testing A. fumigatus (NCCLS M38-A, 2002). […] Amphotericin B was included in the screen with C. albicans as a positive control. All MIC testing was done in 96 well microtiter panels using RPMI 1640 (with glutamine and without bicarbonate) broth as a growth media. Incubation was at 35° C., and growth was read at 48, 72, (and for some slow growing fungal species, 96 hours). […] MFC (minimal fungicidal concentrations) endpoints were calculated using a modified methodology based on the NCCLS defined methodology for measuring minimal bactericidal concentrations (MBC). Experimentation to calculate MFCs was undertaken only for those organisms for which an MIC endpoint was satisfactorily calculated. MFCs are defined as the concentration required to reduce the number of viable organisms by at least 90%.

Trichoderma virens = experiment: Antifungal MIC/MFC, NCCLS M38-A; assay type: cell-based
Description: as §1

Penicillium funiculosum = experiment: Antifungal MIC/MFC, NCCLS M38-A; assay type: cell-based
Description: as §1

Aspergillus fumigatus = experiment: Antifungal MIC/MFC, NCCLS M38-A; assay type: cell-based
Description: as §1

Streptococcus pyogenes = experiment: MIC100, clinical isolates of hospital-acquired pathogens (Table 7); assay type: cell-based; conditions: Mueller Hinton+2-5% lysed horse blood, in µg/mL
Enterococcus faecalis = experiment: as above; assay type: cell-based; conditions: control strain ATCC 29212
Haemophilus influenzae = experiment: as above; assay type: cell-based; conditions: Mueller Hinton+NAD+yeast extract+hematin
Streptococcus pneumoniae = experiment: as above; assay type: cell-based; conditions: for mic (MIC100) Streptococcus pneumoniae: clinical isolates, no phenotype given; for mic (MIC100) Streptococcus pneumoniae / mic (MIC100) Streptococcus pneumoniae PEN-R: Mueller Hinton+2-5% lysed horse blood, in µg/mL; for mic (MIC100) Streptococcus pneumoniae ATCC 49619: control strain ATCC 49619; for mic (MIC100) Streptococcus pneumoniae PEN-R: penicillin-resistant clinical isolates
[4] = concentration reducing viable organisms by at least 90%

For C[C@@H]1[C@H](O)[C@@H](C)/C=C/C=C/C=C/C=C/C=C/C=C/C=C/[C@H](O[C@@H]2O[C@H](C)[C@@H](O)[C@H](N)[C@@H]2O)C[C@@H]2O[C@](O)(C[C@@H](O)C[C@@H](O)[C@H](O)CC[C@@H](O)C[C@@H](O)CC(=O)O[C@H]1C)C[C@H](O)[C@H]2C(=O)O [AMP B, amphotericin B], the “mic (MIC100) Candida albicans” value (Candida albicans) was 2.
Work on NCC[C@H](O)C(=O)N[C@@H]1C[C@H](N)[C@@H](O[C@H]2O[C@H](CN)[C@@H](O)[C@H](O)[C@H]2O)[C@H](O)[C@H]1O[C@H]1O[C@H](CO)[C@@H](O)[C@H](N)[C@H]1O [Amikacin, amikacin, reference compound] yielded an MIC ([1]; ATCC 29213 / MRSA, strain ATCC29213 (Table 6), read-out: MIC100 S. aureus ATCC29213) of 2 µg/mL (≈ 3.42 µM), an MIC ([1]; MRSA, methicillin-resistant S. aureus OC2878, read-out: MIC100 MRSA OC2878) of 64 µg/mL (≈ 109 µM) and an MIC (E. coli [2]; strain ATCC25922, read-out: MIC100 E. coli ATCC25922) of 1 µg/mL (≈ 1.71 µM). For the same compound, the MIC (E. coli [2]; strain OC2530, read-out: MIC100 E. coli OC2530) was 2 µg/mL (≈ 3.42 µM).
In the case of O=C(O)c1cn(C2CC2)c2cc(N3CCNCC3)c(F)cc2c1=O [Ciprofloxacin, ciprofloxacin, reference compound], the MIC (B. anthracis; Bacillus anthracis, 24 h, read-out: MIC100 B. anthracis (24 hr)) is reported as 0.125 to 0.25 µg/mL (≈ 0.377 to 0.754 µM), the “Time course of growth inhibition of Bacillus anthracis” value (B. anthracis; growth recorded at 2 hour intervals over 24 hours (FIG. 3)) is reported as “transient cell growth was observed at early time points” and the MIC (Y. pestis) is reported as 0.0312 µg/mL (≈ 0.0942 µM). The “increase in MIC on serial passage” value (S. aureus) was 125 fold.
With N=C(N)NCCc1cc(Br)cc(C#Cc2cccc(C#Cc3cc(Br)cc(CCNC(=N)N)c3)c2)c1 [Compound 2] the “Hemolysis HC50” value (human erythrocytes; human erythrocytes) was 8 µg/mL, the HC50 (human erythrocytes; human erythrocytes, Table 2) was 8.5 µg/mL and the “Selectivity HC50/MIC E.coli” value (human erythrocytes; ratio of HC50 to E. coli MIC) was 5.3. For the same compound, the MIC90 (E. coli [3]; read-out: MIC90 E. Coli) was 1.6 µg/mL (≈ 2.64 µM), the MIC (E. coli [3]) was 3.2 µg/mL (≈ 5.28 µM) and the MIC (B. subtilis) was 1.6 µg/mL (≈ 2.64 µM). It also gave an MIC90 (B. subtilis; read-out: MIC90 B. subtilis) of 1.6 µg/mL (≈ 2.64 µM).
With NCCNC(=O)c1cc(Br)cc(C#Cc2cccc(C#Cc3cc(Br)cc(C(=O)NCCN)c3)c2)c1 [Compound 4] the “Hemolysis HC50” value (human erythrocytes; human erythrocytes) was 12.5 µg/mL, the MIC (E. coli [3]) was 50 µg/mL (≈ 82.2 µM) and the MIC (B. subtilis) was 25 µg/mL (≈ 41.1 µM).
In the case of CCCCCOc1c(I)cc(CN)cc1C#Cc1cccc(C#Cc2cc(CN)cc(I)c2OCCCCC)c1 [Compound 5], the “Hemolysis HC50” value (human erythrocytes; human erythrocytes) is reported as less than 12.5 µg/mL, the MIC (E. coli [3]) is reported as 25 µg/mL (≈ 32.9 µM) and the MIC (B. subtilis) is reported as 100 µg/mL (≈ 131 µM).
In the case of CCCCCOc1c(I)cc(CNC(=N)N)cc1C#Cc1cccc(C#Cc2cc(CNC(=N)N)cc(I)c2OCCCCC)c1 [Compound 6], the “Hemolysis HC50” value (human erythrocytes; human erythrocytes) is reported as 5 µg/mL, the MIC (E. coli [3]) is reported as 6.4 µg/mL (≈ 7.58 µM) and the MIC (B. subtilis) is reported as 3.2 µg/mL (≈ 3.79 µM).
In the case of OC(Cn1cncn1)(Cn1cncn1)c1ccc(F)cc1F [Fluconazole, reference compound], the “MIC Chaetomium globosum” value (Chaetomium globosum; RPMI 1640, 35° C.) is reported as 0.25/0.25, the “MFC Chaetomium globosum” value (Chaetomium globosum; [4]) is reported as 0.25/0.25 and the “MIC Trichoderma virens” value (Trichoderma virens; RPMI 1640, 35° C.) is reported as >128/>128. The “MFC Trichoderma virens” value (Trichoderma virens; [4]) was >128/>128, the MIC Penicillium funiculosum (Penicillium funiculosum; RPMI 1640, 35° C.) was 4 µg/mL (≈ 13.1 µM) and the MFC Penicillium funiculosum (Penicillium funiculosum; [4]) was greater than 32 µg/mL. For the same compound, the “MIC Aspergillus fumigatus” value (Aspergillus fumigatus; RPMI 1640, 35° C.) was >32/>32 and the “MFC Aspergillus fumigatus” value (Aspergillus fumigatus; [4]) was >32/>32.
With C[C@H]1COc2c(N3CCN(C)CC3)c(F)cc3c(=O)c(C(=O)O)cn1c23 [LEVOFLOX, levofloxacin] the “mic (MIC100) Streptococcus pyogenes” value (Streptococcus pyogenes) was 0.25 and 0.5, the mic (MIC100) Enterococcus faecalis ATCC 29212 (Enterococcus faecalis) was 0.5 µg/mL and the “mic (MIC100) Candida albicans” value (Candida albicans) was greater than 8. The “mic (MIC100) Haemophilus influenzae” value (Haemophilus influenzae) was “≦0.03”, the “mic (MIC100) Streptococcus pneumoniae” value (Streptococcus pneumoniae) was 1 and 0.5 and the mic (MIC100) Streptococcus pneumoniae ATCC 49619 (Streptococcus pneumoniae) was 0.5 µg/mL. The “mic (MIC100) Streptococcus pneumoniae PEN-R” value (Streptococcus pneumoniae) was 0.5.
In the case of CC(=O)NC[C@H]1CN(c2ccc(N3CCOCC3)c(F)c2)C(=O)O1 [LINEZOLID, linezolid], the “mic (MIC100) Streptococcus pyogenes” value (Streptococcus pyogenes) is reported as 1, the mic (MIC100) Enterococcus faecalis ATCC 29212 (Enterococcus faecalis) is reported as 2 µg/mL and the “mic (MIC100) Candida albicans” value (Candida albicans) is reported as greater than 8. For the same compound, the “mic (MIC100) Haemophilus influenzae” value (Haemophilus influenzae; in µg/mL) was >8 and 8, the “mic (MIC100) Streptococcus pneumoniae” value (Streptococcus pneumoniae) was 1 and the mic (MIC100) Streptococcus pneumoniae ATCC 49619 (Streptococcus pneumoniae) was 1 µg/mL. For the same compound, the “mic (MIC100) Streptococcus pneumoniae PEN-R” value (Streptococcus pneumoniae) was 0.5 and 1.
CN[C@H](CC(C)C)C(=O)N[C@H]1C(=O)N[C@@H](CC(N)=O)C(=O)N[C@H]2C(=O)N[C@H]3C(=O)N[C@H](C(=O)N[C@H](C(=O)O)c4cc(O)cc(O)c4-c4cc3ccc4O)[C@H](O)c3ccc(c(Cl)c3)Oc3cc2cc(c3O[C@@H]2O[C@H](CO)[C@@H](O)[C@H](O)[C@H]2O[C@H]2C[C@](C)(N)[C@H](O)[C@H](C)O2)Oc2ccc(cc2Cl)[C@H]1O [VANCO, vancomycin] was tested, and the “mic (MIC100) Streptococcus pyogenes” value (Streptococcus pyogenes) was 0.5, the mic (MIC100) Enterococcus faecalis ATCC 29212 (Enterococcus faecalis) was 4 µg/mL and the “mic (MIC100) Candida albicans” value (Candida albicans) was greater than 32. The “mic (MIC100) Haemophilus influenzae” value (Haemophilus influenzae; in µg/mL) was greater than 32, the “mic (MIC100) Streptococcus pneumoniae” value (Streptococcus pneumoniae) was 0.5 and the mic (MIC100) Streptococcus pneumoniae ATCC 49619 (Streptococcus pneumoniae) was 0.5 µg/mL. The “mic (MIC100) Streptococcus pneumoniae PEN-R” value (Streptococcus pneumoniae) was 0.5 and 1.
CCn1cc(C(=O)O)c(=O)c2cc(F)c(N3CCNCC3)cc21 [norfloxacin] was tested, and the “increase in MIC on serial passage” value (S. aureus) was 160 fold.
